According to patent US20090124539A1, “Methods of treating infection” (priority 2007, published 2009):
Values after ≈ are worked out from the molar mass of the structure shown. Like-named read-outs stand apart in the source and are kept apart here.

What was measured:
Enterococci = assay: MIC, broth microdilution, summary over Enterococci; format: cell-based; conditions: against Enterococci
Protocol: (§1) The solvent for all of the compounds was deionized water (DIW), and all of the compounds dissolved in the solvent. The stock solutions were allowed to stand in DIW for one hour at room temperature prior to testing to allow time for auto-sterilization.
(§2) The test organisms were originally received from clinical sources, or from the American Type Culture Collection. When received, the organisms were sub-cultured onto an appropriate agar medium. Following incubation, colonies were harvested from these plates and cell suspensions prepared and frozen at −80° C. On the day prior to assay, a frozen vial of each culture was thawed and the contents were streaked for isolation onto either Tryptic Soy Agar (Becton Dickinson, Sparks, Md.) or Tryptic Soy Agar (Enhanced Hemolysis; Becton Dickinson) supplemented with 5% sheep blood for streptococci. The agar plates were incubated overnight at 35° C. […]
(§3) MIC values were determined using a broth microdilution method as recommended by the Clinical and Laboratory Standards Institute (Clinical and Laboratory Standards Institute^a. Methods for Dilution Antimicrobial Susceptibility Tests for Bacteria That Grow Aerobically; Approved Standard-Seventh Edition. Clinical and Laboratory Standards Institute document M7-A7 [ISBN 1-56238-587-9]. Clinical and Laboratory Standards Institute, 940 West Valley Road, Suite 1400, Wayne, Pa. 19087-1898 USA, 2006). […]

Streptococcus pneumoniae = assay: MIC, broth microdilution (CLSI); format: cell-based
Protocol: as §1
(§4) The test organisms were originally received from clinical sources, or from the American Type Culture Collection. When received, the organisms were sub-cultured onto an appropriate agar medium. Following incubation, colonies were harvested from these plates and cell suspensions prepared and frozen at −80° C. On the day prior to assay, a frozen vial of each culture was thawed and the contents were streaked for isolation onto either Tryptic Soy Agar (Becton Dickinson, Sparks, Md.) or Tryptic Soy Agar (Enhanced Hemolysis; Becton Dickinson) supplemented with 5% sheep blood for streptococci. The agar plates were incubated overnight at 35° C. Staphylococcus aureus ATCC 29213 and Enterococcus faecalis ATCC 29212 were included as quality control isolates in the assay.
(§5) The test medium for the broth microdilution testing was Mueller Hinton II broth (MHB II; BBL# 212322, Lot # 6024003, Becton Dickinson). The broth was prepared at 1.05× normal weight/volume to offset the 5% volume of the drug solution in the final test plates.
For streptococci, lysed horse blood (Lot # H88621; Cleveland Scientific, Bath, Ohio) was added to the MHB II at a final concentration of 2%. […]
(§6) MIC values were determined using a broth microdilution method as recommended by the Clinical and Laboratory Standards Institute (Clinical and Laboratory Standards Institute^a. Methods for Dilution Antimicrobial Susceptibility Tests for Bacteria That Grow Aerobically; Approved Standard-Seventh Edition. Clinical and Laboratory Standards Institute document M7-A7 [ISBN 1-56238-587-9]. Clinical and Laboratory Standards Institute, 940 West Valley Road, Suite 1400, Wayne, Pa. 19087-1898 USA, 2006). Automated liquid handlers (Multidrop 384, Labsystems, Helsinki, Finland; Biomek 2000 and Multimek 96, Beckman Coulter, Fullerton Calif.) were used to conduct serial dilutions and make liquid transfers.
(§7) Wells of two standard 96-well microdilution plates (Falcon 3918; Becton Dickinson) were filled with 150 μL of […] using the Multidrop 384. These plates were used to prepare the drug “mother plates” that provided the serial drug dilutions for replicate “daughter plates”. The Biomek 2000 was used to transfer 150 μl of each stock solution from the wells of column 1 of a deep well plate to the corresponding wells in column 1 of the mother plate and to make eleven 2-fold serial dilutions in the mother plates. The wells of column 12 contained no drug and were the organism growth control wells. Each mother plate has the capacity to create a total of 12 daughter plates.
(§8) The daughter plates were loaded with 180 μL of one of the media described above using the Multidrop 384. The wells of the daughter plates ultimately contained 180 μL of MHB II, 10 μL of drug solution, and 10 μL of bacterial inoculum prepared in broth appropriate to the test organism (1.05×). The daughter plates were prepared on the Multimek 96 instrument, which transferred 10 μL of drug solution from each well of the mother plate to each corresponding well of each daughter plate in a single step.
Standardized inoculum of each organism was prepared following Clinical and Laboratory Standards Institute (Clinical and Laboratory Standards Institute^b. Performance Standards for Antimicrobial Susceptibility Testing; Sixteenth Informational Supplement. CLSI document M100-S16 [ISBN 1-56238-588-7]. Clinical and Laboratory Standards Institute, 940 West Valley Road, Suite 1400, Wayne, Pa. 19087-1898 USA, 2006) methods. The inoculum for each organism was dispensed into sterile reservoirs divided by length (Beckman Coulter), and the Biomek 2000 was used to inoculate the plates. […]

Enterococcus faecium = assay: MIC, broth microdilution (CLSI); format: cell-based
Protocol: (§9) The stock solutions were allowed to stand in DIW for one hour at room temperature prior to testing to allow time for auto-sterilization.
as §4, §5
(§10) CLSI guidelines recommend that Mueller-Hinton II broth be adjusted to contain 50 mg/L of Ca^++ ions for proper daptomycin MIC results. Since Mueller-Hinton II broth has already been adjusted by the manufacturer to contain approximately 25 mg/L of Ca^++ ions, an additional 25 mg/L of Ca^++ ions was adjusted with 10 mg/mL of CaCl2.2H2O (Lot# 084K0215; Sigma-Aldrich) added at a rate of 0.1 mL/L of broth, for each desired increment of 1 mg/L. This supplemented Mueller-Hinton II broth was used only in wells containing daptomycin.
as §6, §7, §8

Staphylococcus aureus [1] = assay: MIC, broth microdilution (CLSI); format: cell-based
Protocol: as §9, §4, §5, §10, §6, §7, §8

staphylococci = assay: MIC, broth microdilution, summary over staphylococci; format: cell-based; conditions: against staphylococci
Protocol: as §1, §2, §3

Enterococcus faecalis [2] = assay: MIC, broth microdilution (CLSI); format: cell-based
Protocol: as §1, §4, §5, §10, §6, §7
as §8, with “step. […]” for “step.”

[3] = test system: Staphylococcus epidermidis; assay: MIC, broth microdilution (CLSI); format: cell-based
Protocol: as §1, §4, §5, §10, §6, §7
as §8, with “step. […]” for “step.”

Streptococcus pyogenes = assay: MIC, broth microdilution (CLSI); format: cell-based
Protocol: as §1, §4, §5
For streptococci, lysed horse blood (Lot # H88621; Cleveland Scientific, Bath, Ohio) was added to the MHB II at a final concentration of 2%.
as §10, §6, §7
as §8, with “step. […]” for “step.”

Staphylococcus aureus [4] = conditions: quality control range for Staphylococcus aureus ATCC 29213 (# 100); cited from earlier work
Enterococcus faecalis [5] = conditions: quality control range for Enterococcus faecalis ATCC 29212 (# 101); cited from earlier work
[6] = Streptococcus pyogenes Micromyx # 942, macrolide^R

Empedopeptin
range of MIC values (Enterococci; all strains tested): 4 to 32 µg/mL | MIC, most strains inhibited (Enterococci; most strains): 8 to 16 µg/mL | MIC (Streptococcus pneumoniae; Streptococcus pneumoniae Micromyx # 374, Wild type): 1 µg/mL | MIC (Streptococcus pneumoniae; Streptococcus pneumoniae Micromyx # 375, parC, gyrB): 2 µg/mL | MIC (Streptococcus pneumoniae; Streptococcus pneumoniae Micromyx # 376, parC, gyrA): 2 µg/mL | MIC (Streptococcus pneumoniae; Streptococcus pneumoniae Micromyx # 379, parC, gyrA, gyrB): 2 µg/mL | MIC (Streptococcus pneumoniae; Streptococcus pneumoniae Micromyx # 927, mef(A)): <0.12 µg/mL | MIC (Streptococcus pneumoniae; Streptococcus pneumoniae Micromyx # 928, erm(B)): 0.5 µg/mL | MIC range (Streptococcus pneumoniae; all strains of S. pneumoniae): ≦0.12-2 μg/mL | MIC (Enterococcus faecium; Enterococcus faecium Micromyx # 750, Van^S): 8 µg/mL | MIC (Enterococcus faecium; Enterococcus faecium Micromyx # 752, Van A): 16 µg/mL | MIC (Enterococcus faecium; Enterococcus faecium Micromyx # 1120, Van B): 16 µg/mL | MIC (Enterococcus faecium; Enterococcus faecium Micromyx # 1721, DAP^R): 32 µg/mL | MIC (Staphylococcus aureus [1]; Staphylococcus aureus Micromyx # 100, MSSA, CLSI QC strain (ATCC 29213)): 4 µg/mL | MIC (Staphylococcus aureus [1]; Staphylococcus aureus Micromyx # 106, RA^R): 0.5 µg/mL | MIC (Staphylococcus aureus [1]; Staphylococcus aureus Micromyx # 1002, MSSA, macrolide^R): 4 µg/mL | MIC (Staphylococcus aureus [1]; Staphylococcus aureus Micromyx # 1004, MRSA, FA^R): 8 µg/mL | MIC (Staphylococcus aureus [1]; Staphylococcus aureus Micromyx # 1016, FA^R): 8 µg/mL | MIC (Staphylococcus aureus [1]; Staphylococcus aureus Micromyx # 1651, LZD^R clinical isolate): 4 µg/mL | MIC (Staphylococcus aureus [1]; Staphylococcus aureus Micromyx # 1723, VISA): 4 µg/mL | MIC (Staphylococcus aureus [1]; Staphylococcus aureus Micromyx # 1727, GM^R): 8 µg/mL | MIC (Staphylococcus aureus [1]; Staphylococcus aureus Micromyx # 1730, Community-acquired MRSA): 4 µg/mL | MIC (Staphylococcus aureus [1]; Staphylococcus aureus Micromyx # 1731, CHL^R): 4 µg/mL | MIC values in the range (staphylococci; all strains tested): 0.5 to 8 µg/mL | MIC, majority of strains inhibited (staphylococci; majority of strains): 4 to 8 µg/mL | MIC (Enterococcus faecalis [2]; Enterococcus faecalis Micromyx # 101, VSE, CLSI QC strain (ATCC 29212)): 4 µg/mL | MIC (Enterococcus faecalis [2]; Enterococcus faecalis Micromyx # 413, LZD^R from res. dev. or other): 8 µg/mL | MIC (Enterococcus faecalis [2]; Enterococcus faecalis Micromyx # 486, Van A): 8 µg/mL | MIC (Enterococcus faecalis [2]; Enterococcus faecalis Micromyx # 1088, Van B): 16 µg/mL | MIC ([3]; Staphylococcus epidermidis Micromyx # 108, MRSE): 8 µg/mL | MIC ([3]; Staphylococcus epidermidis Micromyx # 835, MSSE): 8 µg/mL | MIC (Streptococcus pyogenes; [6]): ≦0.12 μg/mL | MIC (Streptococcus pyogenes; Streptococcus pyogenes Micromyx # 985, Susceptible): ≦0.12 μg/mL | MIC (Streptococcus pyogenes; both S. pyogenes test strains (including the macrolide-resistant strain)): ≤ 0.12 µg/mL

Cc1onc(-c2ccccc2)c1C(=O)N[C@@H]1C(=O)N2[C@@H]1SC(C)(C)[C@@H]2C(=O)O [Oxacillin, oxacillin]
MIC, CLSI Recommended Range (Staphylococcus aureus [4]): 0.12 to 0.5 µg/mL | MIC (Streptococcus pneumoniae; Streptococcus pneumoniae, Streptococcus pneumoniae Micromyx # 374, Wild type, read-out: MIC): 16 µg/mL (≈ 39.9 µM) | MIC (Streptococcus pneumoniae; Streptococcus pneumoniae, Streptococcus pneumoniae Micromyx # 375, parC, gyrB, read-out: MIC): ≤ 0.12 µg/mL | MIC (Streptococcus pneumoniae; Streptococcus pneumoniae, Streptococcus pneumoniae Micromyx # 376, parC, gyrA, read-out: MIC): ≤ 0.12 µg/mL | MIC (Streptococcus pneumoniae; Streptococcus pneumoniae, Streptococcus pneumoniae Micromyx # 379, parC, gyrA, gyrB, read-out: MIC): ≤ 0.12 µg/mL | MIC (Streptococcus pneumoniae; Streptococcus pneumoniae, Streptococcus pneumoniae Micromyx # 927, mef(A), read-out: MIC): 16 µg/mL (≈ 39.9 µM) | MIC (Streptococcus pneumoniae; Streptococcus pneumoniae, Streptococcus pneumoniae Micromyx # 928, erm(B), read-out: MIC): 16 µg/mL (≈ 39.9 µM) | MIC (Enterococcus faecium; Enterococcus faecium, Enterococcus faecium Micromyx # 750, Van^S, read-out: MIC): 4 µg/mL (≈ 9.96 µM) | MIC (Enterococcus faecium; Enterococcus faecium, Enterococcus faecium Micromyx # 1721, DAP^R, read-out: MIC): 32 µg/mL (≈ 79.7 µM) | MIC (Staphylococcus aureus [1]; Staphylococcus aureus, ATCC 29213 / MSSA, Staphylococcus aureus Micromyx # 100, MSSA, CLSI QC strain (ATCC 29213), read-out: MIC): 0.25 µg/mL (≈ 0.623 µM) | MIC (Staphylococcus aureus [1]; Staphylococcus aureus, MRSA, Staphylococcus aureus Micromyx # 1004, MRSA, FA^R, read-out: MIC): 16 µg/mL (≈ 39.9 µM) | MIC (Staphylococcus aureus [1]; Staphylococcus aureus, MRSA, Staphylococcus aureus Micromyx # 1730, Community-acquired MRSA, read-out: MIC): 32 µg/mL (≈ 79.7 µM) | MIC (Staphylococcus aureus [1]; Staphylococcus aureus, MSSA, Staphylococcus aureus Micromyx # 1002, MSSA, macrolide^R, read-out: MIC): 0.5 µg/mL (≈ 1.25 µM) | MIC (Staphylococcus aureus [1]; Staphylococcus aureus, Staphylococcus aureus Micromyx # 1016, FA^R, read-out: MIC): 32 µg/mL (≈ 79.7 µM) | MIC (Staphylococcus aureus [1]; Staphylococcus aureus, Staphylococcus aureus Micromyx # 1727, GM^R, read-out: MIC): 0.25 µg/mL (≈ 0.623 µM) | MIC (Staphylococcus aureus [1]; Staphylococcus aureus, Staphylococcus aureus Micromyx # 1731, CHL^R, read-out: MIC): 0.25 µg/mL (≈ 0.623 µM) | MIC, CLSI Recommended Range (Enterococcus faecalis [5]): 8 to 32 µg/mL | MIC (Enterococcus faecalis [2]; Enterococcus faecalis, ATCC29212, Enterococcus faecalis Micromyx # 101, VSE, CLSI QC strain (ATCC 29212), read-out: MIC): 16 µg/mL (≈ 39.9 µM) | MIC (Enterococcus faecalis [2]; Enterococcus faecalis, Enterococcus faecalis Micromyx # 413, LZD^R from res. dev. or other, read-out: MIC): 64 µg/mL (≈ 159 µM) | MIC (Enterococcus faecalis [2]; Enterococcus faecalis, Enterococcus faecalis Micromyx # 486, Van A, read-out: MIC): 16 µg/mL (≈ 39.9 µM) | MIC (Enterococcus faecalis [2]; Enterococcus faecalis, Enterococcus faecalis Micromyx # 1088, Van B, read-out: MIC): 16 µg/mL (≈ 39.9 µM) | MIC ([3]; Staphylococcus epidermidis Micromyx # 108, MRSE, read-out: MIC): 64 µg/mL (≈ 159 µM) | MIC ([3]; Staphylococcus epidermidis Micromyx # 835, MSSE, read-out: MIC): ≤ 0.12 µg/mL | MIC (Streptococcus pyogenes; [6]): ≦0.12 μg/mL | MIC (Streptococcus pyogenes; Streptococcus pyogenes Micromyx # 985, Susceptible, read-out: MIC): ≤ 0.12 µg/mL
